The values below are quoted from earlier work in US8229872B2, “Modeling and control for highly variable and nonlinear systems” (priority 2007, dated 2012).

In the data set the test system is receptors of the neuromuscular junction. To be noted: isolated cat anterior tibialis and sartorius muscles; ref [18].

Turning to `COc1cc2c3cc1Oc1cc(ccc1O)C[C@@H]1c4c(cc(OC)c(O)c4Oc4ccc(cc4)C[C@@H]3N(C)CC2)CC[N+]1(C)C` [tubocurarine], the “receptors that had to be blocked by the antagonist before block was noticeable” value is listed as 76±5% and the “receptors that had to be blocked for near complete blockade” value is 92±16%.
